# Source: patent US10111890B2, “9-aminomethyl minocycline compounds and uses thereof” (Paratek Pharmaceuticals, Inc., priority 2016, dated 2018)
# Like-named read-outs stand apart in the source and are kept apart here.
# Experiments:
# [1] = Phase 1 multiple oral dose study: urine pharmacokinetics; format: in vivo, human; settings: for CL renal: human
# Procedure: Urine samples were only collected from a subset of subjects because analysis of urine PK was added by an amendment to the study protocol after the study was already underway. […] Additional parameters […] Ae0-24 were also calculated.
# [2] = tested on: ABSSSI known or suspected to be due to Gram-positive pathogens; experiment: Phase 3 oral omadacycline vs oral linezolid in ABSSSI: Investigator's Assessment of Clinical Response at PTE; format: in vivo, human; settings: for Overall clinical response at PTE: Clinical Success / Overall Clinical Success at PTE, %: investigator assessment; for Overall clinical response at PTE: Clinical Success / Overall clinical response at PTE: Clinical Failure / Overall clinical response at PTE: Clinical Failure or Indeterminate / Overall clinical response at PTE: Indeterminate: mITT; for Overall Clinical Success at PTE, %: micro-mITT, % of N1
# [3] = Cellulitis/erysipelas, actual type
# [4] = Cellulitis/erysipelas, as randomized
structure (smiles),measurement,setting,value
"CN(C)c1cc(CNCC(C)(C)C)c(O)c2c1C[C@H]1C[C@H]3[C@H](N(C)C)C(O)=C(C(N)=O)C(=O)[C@@]3(O)C(O)=C1C2=O [Omadacycline, 9-[(2,2-dimethyl-propylamino)-methyl]-minocycline]","Ae0-24, Mean (CV)","[1]; 300 mg, Day 1 (n = 2)",20.37 (8.3) mg
same,"Fe0-24, Mean (CV)","[1]; 300 mg, Day 1 (n = 2)",6.79 (8.3) %
same,"Ae0-24, Mean (CV)","[1]; 300 mg, Day 5 (n = 3)",26.14 (14.6) mg
same,"Fe0-24, Mean (CV)","[1]; 300 mg, Day 5 (n = 3)",8.71 (14.6) %
same,"Ae0-24, Mean (CV)","[1]; 450 mg, Day 1 (n = 3)",25.06 (16.8) mg
same,"Fe0-24, Mean (CV)","[1]; 450 mg, Day 1 (n = 3)",5.57 (16.8) %
same,"Ae0-24, Mean (CV)","[1]; 450 mg, Day 5 (n = 5)",30.81 (33.0) mg
same,"Fe0-24, Mean (CV)","[1]; 450 mg, Day 5 (n = 5)",6.85 (33.0) %
same,"Ae0-24, Mean (CV)","[1]; 600 mg, Day 1 (n = 1)",31.96 mg
same,"Fe0-24, Mean (CV)","[1]; 600 mg, Day 1 (n = 1)",5.33%
same,"Ae0-24, Mean (CV)","[1]; 600 mg, Day 5 (n = 4)",51.82 (14.8) mg
same,"Fe0-24, Mean (CV)","[1]; 600 mg, Day 5 (n = 4)",8.64 (14.8) %
same,CL renal,"[1]; in vivo, 300 mg, Day 1 (n = 2), read-out: CLr, Mean (CV) (converted)",50.2 mL/min
same,CL renal,"[1]; in vivo, 300 mg, Day 5 (n = 3), read-out: CLr, Mean (CV) (converted)",54.7 mL/min
same,CL renal,"[1]; in vivo, 450 mg, Day 1 (n = 3), read-out: CLr, Mean (CV) (converted)",46.7 mL/min
same,CL renal,"[1]; in vivo, 450 mg, Day 5 (n = 5), read-out: CLr, Mean (CV) (converted)",39.7 mL/min
same,CL renal,"[1]; in vivo, 600 mg, Day 1 (n = 1), read-out: CLr, Mean (CV) (converted)",69.5 mL/min
same,CL renal,"[1]; in vivo, 600 mg, Day 5 (n = 4), read-out: CLr, Mean (CV) (converted)",50.8 mL/min
same,CL renal,"[1]; urine, oral, all omadacycline dose groups, Day 1, read-out: Renal clearance (CLr)",46.7 to 70 mL/min
same,CL renal,"[1]; urine, oral, all omadacycline dose groups, Day 5, read-out: Renal clearance (CLr)",40 to 55 mL/min
same,"Difference in Overall Clinical Success rate at PTE, omadacycline minus linezolid",[2]; CE-PTE,2.3%
same,Overall clinical response at PTE: Clinical Success,"[2]; Cellulitis/erysipelas, actual type of infection",76 (88.4) n (%)
same,Overall clinical response at PTE: Clinical Failure,[2]; [3],2 (2.3) n (%)
same,Overall clinical response at PTE: Clinical Failure or Indeterminate,[2]; [3],10 (11.6) n (%)
same,Overall clinical response at PTE: Indeterminate,[2]; [3],8 (9.3) n (%)
same,Overall clinical response at PTE: Clinical Failure,[2]; [4],2 (2.4) n (%)
same,Overall clinical response at PTE: Clinical Failure or Indeterminate,[2]; [4],10 (12.2) n (%)
same,Overall clinical response at PTE: Indeterminate,[2]; [4],8 (9.8) n (%)
same,Overall clinical response at PTE: Clinical Success,"[2]; Cellulitis/erysipelas, type of infection as randomized",72 (87.8) n (%)
same,Overall clinical response at PTE: Clinical Success,"[2]; Major Abscess, actual type of infection",54 (84.4) n (%)
same,Overall clinical response at PTE: Clinical Failure,"[2]; Major Abscess, actual type",2 (3.1) n (%)
same,Overall clinical response at PTE: Clinical Failure or Indeterminate,"[2]; Major Abscess, actual type",10 (15.6) n (%)
same,Overall clinical response at PTE: Indeterminate,"[2]; Major Abscess, actual type",8 (12.5) n (%)
same,Overall clinical response at PTE: Clinical Failure,"[2]; Major Abscess, as randomized",2 (3.1) n (%)
same,Overall clinical response at PTE: Clinical Failure or Indeterminate,"[2]; Major Abscess, as randomized",10 (15.6) n (%)
same,Overall clinical response at PTE: Indeterminate,"[2]; Major Abscess, as randomized",8 (12.5) n (%)
same,Overall clinical response at PTE: Clinical Success,"[2]; Major Abscess, type of infection as randomized",54 (84.4) n (%)
same,Overall clinical response at PTE: Clinical Success,"[2]; Wound Infection, actual type of infection",173 (82.4) n (%)
same,Overall clinical response at PTE: Clinical Failure,"[2]; Wound Infection, actual type",8 (3.8) n (%)
same,Overall clinical response at PTE: Clinical Failure or Indeterminate,"[2]; Wound Infection, actual type",37 (17.6) n (%)
same,Overall clinical response at PTE: Indeterminate,"[2]; Wound Infection, actual type",29 (13.8) n (%)
same,Overall clinical response at PTE: Clinical Failure,"[2]; Wound Infection, as randomized",8 (3.7) n (%)
same,Overall clinical response at PTE: Clinical Failure or Indeterminate,"[2]; Wound Infection, as randomized",37 (17.3) n (%)
same,Overall clinical response at PTE: Indeterminate,"[2]; Wound Infection, as randomized",29 (13.6) n (%)
same,Overall clinical response at PTE: Clinical Success,"[2]; Wound Infection, type of infection as randomized",177 (82.7) n (%)
same,"Overall Clinical Success at PTE, %",[2]; baseline pathogen Clostridium perfringens,(80.0) %
same,"Overall Clinical Success at PTE, %",[2]; baseline pathogen Enterobacter cloacae,(80.0) %
same,"Overall Clinical Success at PTE, %",[2]; baseline pathogen Enterococcus faecalis VSE,(100.0) %
same,"Overall Clinical Success at PTE, %",[2]; baseline pathogen Enterococcus faecalis,(100.0) %
same,"Overall Clinical Success at PTE, %",[2]; baseline pathogen Enterococcus faecium VSE,(100.0) %
same,"Overall Clinical Success at PTE, %",[2]; baseline pathogen Enterococcus faecium,(100.0) %
same,"Overall Clinical Success at PTE, %",[2]; baseline pathogen Escherichia coli,(100.0) %
same,"Overall Clinical Success at PTE, %",[2]; baseline pathogen Finegoldia magna,(100.0) %
same,"Overall Clinical Success at PTE, %",[2]; baseline pathogen Klebsiella pneumoniae,(80.0) %
same,"Overall Clinical Success at PTE, %",[2]; baseline pathogen MRSA,(85.6) %
same,"Overall Clinical Success at PTE, %",[2]; baseline pathogen MSSA,(80.8) %
same,"Overall Clinical Success at PTE, %",[2]; baseline pathogen Prevotella denticola,(60.0) %
same,"Overall Clinical Success at PTE, %",[2]; baseline pathogen Prevotella melaninogenica,(100.0) %
same,"Overall Clinical Success at PTE, %",[2]; baseline pathogen Staphylococcus aureus,(82.7) %
same,"Overall Clinical Success at PTE, %",[2]; baseline pathogen Staphylococcus lugdunensis,(80.0) %
same,"Overall Clinical Success at PTE, %",[2]; baseline pathogen Streptococcus agalactiae,(50.0) %
same,"Overall Clinical Success at PTE, %",[2]; baseline pathogen Streptococcus anginosus group,(86.0) %
same,"Overall Clinical Success at PTE, %",[2]; baseline pathogen Streptococcus anginosus,(88.9) %
same,"Overall Clinical Success at PTE, %",[2]; baseline pathogen Streptococcus constellatus,(88.9) %
same,"Overall Clinical Success at PTE, %",[2]; baseline pathogen Streptococcus intermedius,(78.3) %
same,"Overall Clinical Success at PTE, %",[2]; baseline pathogen Streptococcus mitis,(100.0) %
same,"Overall Clinical Success at PTE, %",[2]; baseline pathogen Streptococcus pyogenes,(69.0) %
same,"Overall Clinical Success at PTE, %",[2]; baseline pathogen Streptococcus viridans group,(100.0) %
